Results from paper PMC11345841, “Exploring 2-Sulfonylpyrimidine Warheads as Acrylamide Surrogates for Targeted Covalent Inhibition: A BTK Story” (Journal of Medicinal Chemistry, 2024).
Read-outs that look alike come from different tables or passages of the source.

Legend:
Experiment in all cases: KINOMEscan ScanTK
Format in all cases: binding
EPHA8 = biological target: T1, EPHA8 (Homo sapiens, UniProt P29322)
T1 construct: purchased Eurofins DiscoverX KINOMEscan (scanTK)
T1 sequence (P29322 28-1005): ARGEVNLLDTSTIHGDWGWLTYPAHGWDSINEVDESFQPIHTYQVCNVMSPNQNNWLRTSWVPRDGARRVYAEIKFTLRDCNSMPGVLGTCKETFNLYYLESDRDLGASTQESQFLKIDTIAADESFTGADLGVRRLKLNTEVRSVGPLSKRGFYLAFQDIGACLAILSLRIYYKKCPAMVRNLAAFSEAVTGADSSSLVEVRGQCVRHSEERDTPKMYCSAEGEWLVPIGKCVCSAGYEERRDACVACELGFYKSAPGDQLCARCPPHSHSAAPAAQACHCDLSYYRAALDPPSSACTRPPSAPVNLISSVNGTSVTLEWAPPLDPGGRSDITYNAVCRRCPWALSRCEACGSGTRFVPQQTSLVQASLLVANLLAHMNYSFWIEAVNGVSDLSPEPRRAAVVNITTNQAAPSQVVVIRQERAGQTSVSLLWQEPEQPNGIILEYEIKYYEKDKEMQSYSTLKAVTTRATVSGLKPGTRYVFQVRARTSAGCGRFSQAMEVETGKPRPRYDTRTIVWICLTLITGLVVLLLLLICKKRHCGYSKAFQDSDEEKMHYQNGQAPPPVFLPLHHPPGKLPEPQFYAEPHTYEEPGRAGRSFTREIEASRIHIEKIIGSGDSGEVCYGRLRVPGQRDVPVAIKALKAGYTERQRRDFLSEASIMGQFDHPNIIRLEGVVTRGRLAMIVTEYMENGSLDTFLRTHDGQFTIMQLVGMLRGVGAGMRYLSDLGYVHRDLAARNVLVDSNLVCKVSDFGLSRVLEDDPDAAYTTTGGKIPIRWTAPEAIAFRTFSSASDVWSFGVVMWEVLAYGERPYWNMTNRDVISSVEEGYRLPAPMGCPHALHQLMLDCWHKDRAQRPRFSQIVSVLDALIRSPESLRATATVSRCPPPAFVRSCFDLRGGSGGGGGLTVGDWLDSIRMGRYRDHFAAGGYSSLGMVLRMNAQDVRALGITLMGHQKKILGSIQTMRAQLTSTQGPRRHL

[1] = biological target: T2, ABL1(Q252H)-phosphorylated (Homo sapiens, UniProt P00519, Q252H); settings: for difference in %Control versus reference Ib at 1 µM: read-out: % difference (compound - Ib %Control)
T2 construct: purchased Eurofins DiscoverX KINOMEscan (scanTK)

AXL = biological target: T3, AXL (Homo sapiens, UniProt P30530)
T3 construct: purchased Eurofins DiscoverX KINOMEscan (scanTK)
T3 sequence (P30530 26-894): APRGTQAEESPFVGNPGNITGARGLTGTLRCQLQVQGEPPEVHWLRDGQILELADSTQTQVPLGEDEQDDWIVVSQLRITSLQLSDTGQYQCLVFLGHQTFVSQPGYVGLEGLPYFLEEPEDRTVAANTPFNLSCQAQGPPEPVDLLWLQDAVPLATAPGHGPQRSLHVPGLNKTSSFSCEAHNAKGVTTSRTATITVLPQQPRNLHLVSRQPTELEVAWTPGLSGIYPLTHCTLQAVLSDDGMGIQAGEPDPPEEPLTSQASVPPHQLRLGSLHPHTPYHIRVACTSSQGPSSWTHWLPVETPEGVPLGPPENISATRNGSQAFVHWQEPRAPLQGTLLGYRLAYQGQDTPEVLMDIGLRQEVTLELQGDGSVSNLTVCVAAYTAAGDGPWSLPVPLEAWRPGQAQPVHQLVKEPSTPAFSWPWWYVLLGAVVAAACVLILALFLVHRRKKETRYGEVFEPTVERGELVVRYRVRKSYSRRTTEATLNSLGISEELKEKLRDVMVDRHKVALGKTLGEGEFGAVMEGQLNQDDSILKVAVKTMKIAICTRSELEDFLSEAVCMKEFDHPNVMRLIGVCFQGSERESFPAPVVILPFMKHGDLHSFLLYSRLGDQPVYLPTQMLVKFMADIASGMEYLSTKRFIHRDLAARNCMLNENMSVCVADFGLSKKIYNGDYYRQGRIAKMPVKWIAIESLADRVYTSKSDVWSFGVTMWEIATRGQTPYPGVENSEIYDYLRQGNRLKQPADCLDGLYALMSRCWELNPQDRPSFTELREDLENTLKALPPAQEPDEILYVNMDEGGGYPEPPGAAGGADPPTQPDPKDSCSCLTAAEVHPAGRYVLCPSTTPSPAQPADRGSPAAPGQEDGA

DDR1 = biological target: T4, DDR1 (Homo sapiens, UniProt Q08345)
T4 construct: purchased Eurofins DiscoverX KINOMEscan (scanTK)
T4 sequence (Q08345 19-913): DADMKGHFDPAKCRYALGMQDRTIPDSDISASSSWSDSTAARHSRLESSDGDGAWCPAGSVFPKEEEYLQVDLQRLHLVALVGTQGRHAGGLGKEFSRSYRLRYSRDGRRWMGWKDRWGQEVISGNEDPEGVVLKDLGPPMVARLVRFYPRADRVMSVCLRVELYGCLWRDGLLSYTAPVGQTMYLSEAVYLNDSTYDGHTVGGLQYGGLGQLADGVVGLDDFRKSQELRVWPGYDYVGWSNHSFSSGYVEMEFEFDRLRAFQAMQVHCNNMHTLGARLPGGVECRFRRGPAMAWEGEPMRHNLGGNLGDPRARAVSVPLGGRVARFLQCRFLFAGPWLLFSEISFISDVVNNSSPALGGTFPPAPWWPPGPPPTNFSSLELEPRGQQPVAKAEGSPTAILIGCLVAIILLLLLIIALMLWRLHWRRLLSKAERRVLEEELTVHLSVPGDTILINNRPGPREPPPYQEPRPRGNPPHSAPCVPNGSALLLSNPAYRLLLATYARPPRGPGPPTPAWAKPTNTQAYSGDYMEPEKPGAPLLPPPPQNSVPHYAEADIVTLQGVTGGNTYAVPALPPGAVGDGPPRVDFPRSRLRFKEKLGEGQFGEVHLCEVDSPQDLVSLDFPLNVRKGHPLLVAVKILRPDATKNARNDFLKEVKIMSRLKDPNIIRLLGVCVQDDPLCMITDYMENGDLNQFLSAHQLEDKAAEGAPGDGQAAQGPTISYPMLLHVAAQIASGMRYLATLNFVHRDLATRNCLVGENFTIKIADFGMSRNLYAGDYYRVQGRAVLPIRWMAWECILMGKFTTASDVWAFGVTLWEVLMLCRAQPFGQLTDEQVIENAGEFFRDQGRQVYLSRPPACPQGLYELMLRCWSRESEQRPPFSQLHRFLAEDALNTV

Row | difference in %Control versus compound Ib at 1 µM (EPHA8; @1000nM) [%] | remaining binding at 1 µM (EPHA8; @1000nM, read-out: %Control) [%] | remaining binding at 1 µM (EPHA8; read-out: %Control @1000nM) [%] | difference in %Control versus reference Ib at 1 µM ([1]; @1000nM) [%] | remaining binding at 1 µM ([1]; @1000nM, read-out: %Control) [%] | remaining binding at 1 µM ([1]; read-out: %Control @1000nM) [%] | difference in %Control versus compound Ib at 1 µM (AXL; @1000nM) [%] | remaining binding at 1 µM (AXL; @1000nM, read-out: %Control) [%] | remaining binding at 1 µM (AXL; read-out: %Control @1000nM) [%] | difference in %Control from compound Ib at 1 µM (DDR1; @1000nM) [%] | remaining binding at 1 µM (DDR1; @1000nM, read-out: %Control) [%] | remaining binding at 1 µM (DDR1; read-out: %Control @1000nM) [%] | Compound
1 | 19 | 88 | 88 | -2 | 92 | 92 | 25 | 100 | 100 | -14 | 64 | 64 | CCOC(=O)c1cnc(S(C)(=O)=O)nc1N1CCC[C@@H](n2nc(-c3ccc(Oc4ccccc4)cc3)c3c(N)ncnc32)C1 [Compound 8c, Ethyl (R)-4-(3-(4-Amino-3-(4-phenoxyphenyl)-1H-pyrazolo[3,4-d]pyrimidin-1-yl)piperidin-1-yl)-2-(methylsulfonyl)pyrimidine-5-carboxylate]
2 | 8 | 77 | 77 | -2 | 92 | 92 | 25 | 100 | 100 | -18 | 60 | 60 | COC(=O)c1cnc(S(C)(=O)=O)nc1N1CCCC(n2nc(-c3ccc(Oc4ccccc4)cc3)c3c(N)ncnc32)C1 (stereo not drawn) [Compound 8b, Methyl 4-(3-(4-Amino-3-(4-phenoxyphenyl)-1H-pyrazolo[3,4-d]pyrimidin-1-yl)piperidin-1-yl)-2-(methylsulfonyl)pyrimidine-5-carboxylate]

Second part, the compound before the results:

Row | Compound | difference in %Control versus compound Ib at 1 µM (EPHA8; @1000nM) [%] | remaining binding at 1 µM (EPHA8; @1000nM, read-out: %Control) [%] | remaining binding at 1 µM (EPHA8; read-out: %Control @1000nM) [%] | difference in %Control versus reference Ib at 1 µM ([1]; @1000nM) [%] | remaining binding at 1 µM ([1]; @1000nM, read-out: %Control) [%] | remaining binding at 1 µM ([1]; read-out: %Control @1000nM) [%] | difference in %Control versus compound Ib at 1 µM (AXL; @1000nM) [%] | remaining binding at 1 µM (AXL; @1000nM, read-out: %Control) [%] | remaining binding at 1 µM (AXL; read-out: %Control @1000nM) [%] | difference in %Control from compound Ib at 1 µM (DDR1; @1000nM) [%] | remaining binding at 1 µM (DDR1; @1000nM, read-out: %Control) [%] | remaining binding at 1 µM (DDR1; read-out: %Control @1000nM) [%]
3 | CNC(=O)c1cnc(S(C)(=O)=O)nc1N1CCCC(n2nc(-c3ccc(Oc4ccccc4)cc3)c3c(N)ncnc32)C1 (stereo not drawn) [Compound 8d, 4-(3-(4-Amino-3-(4-phenoxyphenyl)-1H-pyrazolo[3,4-d]pyrimidin-1-yl)piperidin-1-yl)-N-methyl-2-(methylsulfonyl)pyrimidine-5-carboxamide] | 24 | 93 | 93 | -1 | 93 | 93 | 22 | 97 | 97 | -14 | 64 | 64
4 | C=CC(=O)N1CCC[C@@H](n2nc(-c3ccc(Oc4ccccc4)cc3)c3c(N)ncnc32)C1 [Compound 1g, Ibrutinib, reference compound] |  | 69 | 69 |  |  |  |  | 75 | 75 |  | 78 | 78
5 | Cc1cnc(S(C)(=O)=O)nc1N1CCCC(n2nc(-c3ccc(Oc4ccccc4)cc3)c3c(N)ncnc32)C1 (stereo not drawn) [Compound 8a, 1-(1-(5-Methyl-2-(methylsulfonyl)pyrimidin-4-yl)piperidin-3-yl)-3-(4-phenoxyphenyl)-1H-pyrazolo[3,4-d]pyrimidin-4-amine] | 13 | 82 | 82 | 4 | 98 | 98 | 25 | 100 | 100 | 5 | 83 | 83
